Drawing on PMC9848473 (Science Advances, 2023), this text covers Kd and isothermal titration calorimetry for 4 compounds.

The target in assay [1] is T1, RelBs^NTD2:DarB2 complex (DarB:RelBs^NTD) (Bacillus subtilis, UniProt O54408).
T1 construct: gene relA; heterotetramer of Rel residues 1 to 373 with full-length DarB, His10-SUMO tags cleaved, complex purified by size exclusion chromatography; with CBS domain-containing protein YkuL
The experiment in a line: stopped-flow FRET, Kd = koff/kon. To be noted: read-out: Kd^MANT-ATP. In kind it is binding.

For the next assay, the target named is T2, RelBs^NTD (Bacillus subtilis, UniProt O54408).
T2 construct: gene relA; N-terminal domain region, residues 1 to 373 (HD, SYNTH and core domains), His10-SUMO tag cleaved with Ulp1, from E. coli BL21(DE3)
T2 sequence (O54408 1-373): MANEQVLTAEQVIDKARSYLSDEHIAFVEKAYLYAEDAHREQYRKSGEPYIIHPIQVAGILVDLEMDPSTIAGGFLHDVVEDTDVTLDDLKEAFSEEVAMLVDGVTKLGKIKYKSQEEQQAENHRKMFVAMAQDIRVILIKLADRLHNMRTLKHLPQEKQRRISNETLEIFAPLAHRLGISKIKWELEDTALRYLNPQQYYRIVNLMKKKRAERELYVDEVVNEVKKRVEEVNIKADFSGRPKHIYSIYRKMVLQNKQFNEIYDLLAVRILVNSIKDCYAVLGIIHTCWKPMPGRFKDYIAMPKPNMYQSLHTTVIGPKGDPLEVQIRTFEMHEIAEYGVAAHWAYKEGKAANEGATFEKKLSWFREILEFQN
The assay can be described thus: isothermal titration calorimetry. In kind it is binding. To be noted: 25°C; pH 7.5; 10 mM MgCl2. (In general: Isothermal titration calorimetry measures the heat released or taken up as one component is titrated into another.)

The target of assay [2] is T1, RelBs^NTD2:DarB2 complex (DarB:RelBs^NTD). The experiment in a line: isothermal titration calorimetry. It counts as binding.
In another assay the target is DarB (Bacillus subtilis, UniProt O31698). The assay can be described thus: biochemical.
Sequence of DarB (O31698 whole entry): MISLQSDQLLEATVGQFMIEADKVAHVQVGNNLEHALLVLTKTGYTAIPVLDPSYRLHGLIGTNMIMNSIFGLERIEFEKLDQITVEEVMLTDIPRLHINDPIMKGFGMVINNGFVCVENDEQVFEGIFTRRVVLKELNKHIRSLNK

T1 sequence (O54408 1-373): as the sequence (O54408 1-373) above
T1 sequence (O31698 whole entry, further chain, the tested form may be a part): as the sequence (O31698 whole entry) above

As a reminder, the Kd is the equilibrium constant for the complex coming apart. For the compound `CNc1ccccc1C(=O)O[C@H]1[C@@H](O)[C@H](n2cnc3c(N)ncnc32)O[C@@H]1CO[P@@](=O)(O)O[P@](=O)(O)OP(=O)(O)O` (mixture of isomers) [MANT-ATP], the Kd in assay [1] was 308 µM.
For the compound `Nc1ncnc2c1ncn2[C@@H]1O[C@H](COP(=O)(O)CP(=O)(O)OP(=O)(O)O)[C@@H](O)[C@H]1O` [APCPP, adenosine-5′-[(α,β)-methyleno]triphosphate], the isothermal titration calorimetry entry at RelBs^NTD is recorded as “RelBs^NTD alone has low affinity to APCPP (Fig. 5G)”. The equilibrium dissociation constant (Kd) in assay [2] (read-out: Kd^APCPP) was 115 µM.
Compound `Nc1ncnc2c1ncn2[C@@H]1O[C@@H]2COP(=O)(O)O[C@H]3[C@@H](O)[C@H](n4cnc5c(N)ncnc54)O[C@@H]3COP(=O)(O)O[C@H]2[C@H]1O` [c-di-AMP] showed an equilibrium dissociation constant (Kd) at DarB of 0.0457 µM.
Regarding `Nc1nc2c(ncn2[C@@H]2O[C@H](COP(=O)(O)OP(=O)(O)OP(=O)(O)O)[C@@H](OP(=O)(O)OP(=O)(O)O)[C@H]2O)c(=O)[nH]1` [pppGpp], the Kd in assay [2] (read-out: Kd) stood at 8.2 µM.
